From patent publication US12496329B2, “Methods of using and compositions including an incretin analog” (Eli Lilly and Company, priority 2021, dated 2025)
Read-outs that look alike come from different tables or passages of the source.

Columns and labels:
[1] = MAD study in individuals with diabetes: plasma pharmacokinetics; type: in vivo, human; conditions: for AUC(0-inf) / Cmax / Tmax / half-life / CL/F: both sexes, human, plasma
Excerpt: Studies are designed to evaluate the safety, tolerability, PD and PK of the GGG tri-receptor agonist (SEQ ID NO:1) in individuals with diabetes. The MAD study is a randomized, investigator- and participant-blind, placebo-controlled, multiple-ascending dose, single-site study conducted in individuals with diabetes (i.e., females or males aged 20-70 years, inclusive, with T2DM for at least 3 months and HbA1c at lead-in and screening of ≥7.0% and ≤10.5% and treated with diet and exercise alone or a stable dose of metformin for at least 3 months prior to screening, with stable body weight for 3 months prior to randomization and with a BMI of 23-50 kg/m^2 at screening).
Dose escalation of the GGG tri-receptor agonist is assessed over 12 weeks in cohorts with a starting dose of 0.5 mg. One cohort of 13 individuals is administered 0.5 mg for 12 weeks. A second cohort of 13 individuals is administered 1.5 mg for 12 weeks. A third cohort of 15 individuals is administered 3.0 mg for 12 weeks. A fourth cohort of 15 individuals is administered 3.0 mg for 4 weeks and then administered 6.0 mg for 8 weeks. A fifth cohort of 16 individuals is administered 3.0 mg for 2 weeks, administered 6.0 mg for 2 weeks, administered 9.0 mg for 4 weeks, and then administered 12 mg for 4 weeks. Alternate dose increment steps may be introduced based on emerging safety and tolerability data from the preceding cohorts, and the dose increment steps can be reduced. As a non-limiting example, in Cohort 4, escalation from starting dose of 3 mg may occur via a step-through dose of 4.5 mg before attaining 6 mg, in Cohort 5, escalation from starting dose of 3 to 12 mg may occur via an additional step through dose level of 4.5 mg, prior to the planned doses 6 and 9 mg. In addition to these proposed alternate regimens in Cohort 4 and Cohort 5, planned dose for escalation between cohorts and within cohorts may be further reduced if warranted by safety or tolerability data.
Blood samples are collected on Day 1 at pre-dose and at 12 hr, 24 hr, 48 hr (Day 2) and 72 hr post-dose, as well as at pre-dose on Days 7, 14 and 21, to determine plasma concentration of the GGG tri-receptor agonist. Blood samples also are collected on Day 29 at pre-dose and at 12 hr, 24 hr, 48 hr and 72 hr post-dose, as well as at pre-dose on Days 36, 43 and 50, to determine plasma concentration of the GGG tri-receptor agonist. Blood samples also are collected on Day 57 at pre-dose and at 12 hr, 24 hr, 48 hr and 72 hr post-dose, as well as at pre-dose on Days 64 and 71, to determine plasma concentration of the GGG tri-receptor agonist. Blood samples also are collected on Day 78 at pre-dose and at 12 hr, 24 hr, 48 hr and 72 hr post-dose, as well as at pre-dose on Day 85, to determine plasma concentration of the GGG tri-receptor agonist. Human plasma samples from individuals administered the GGG tri-receptor agonist are analyzed at Q2 Solutions (Ithaca, NY). Concentrations of the GGG tri-receptor agonist are assayed using a validated liquid chromatography high resolution mass spectrometry method, where the lower limits of quantification are 1 ng/ml or 3 ng/ml and the upper limit of quantification is 500 ng/mL.
Blood samples are likewise collected at Weeks 14 and 16 for PK analysis. As above, plasma concentrations are used to compute PK parameters using standard non-compartmental methods in a validated software program (Phoenix WinNonlin Version 8.1).

[2] = Stability of analyte in stored plasma samples (bioanalytical validation); type: in vitro ADME, human; conditions: about -20° C. and about −70° C.
Procedure: Bioanalytical methods: plasma samples are analyzed at Q2 Solutions (Ithaca, NY). The samples are analyzed for the GGG tri-receptor agonist using a validated liquid chromatography high resolution mass spectrometry method. The lower limit of quantification is 1.00 ng/mL and the upper limit of quantification is 500.00 ng/ml. Samples above a limit of quantification are diluted and reanalyzed to yield results within the calibrated range. The intra-assay accuracy (% relative error) during validation ranges from −6.3% to 15.7%. The intra-assay precision (% relative standard deviation) during validation is ≤14.7%. The GGG tri-receptor agonist is stable for up to 96 days when stored at about-20° C. and about −70° C.

[3] = 12 mg, 3.0, 6.0, 9.0, 12.0 mg QW, Day 1
[4] = 12 mg, 3.0, 6.0, 9.0, 12.0 mg QW, Day 29
[5] = 12 mg, 3.0, 6.0, 9.0, 12.0 mg QW, Day 57
[6] = 12 mg, 3.0, 6.0, 9.0, 12.0 mg QW, Day 78

## CC[C@H](C)[C@H](NC(=O)[C@H](Cc1ccccc1)NC(=O)[C@H](C)NC(=O)C(C)(C)NC(=O)[C@H](CCC(N)=O)NC(=O)[C@H](C)NC(=O)[C@H](CCCCNC(=O)COCCOCCNC(=O)CC[C@H](NC(=O)CCCCCCCCCCCCCCCCCCC(=O)O)C(=O)O)NC(=O)[C@H](CCCCN)NC(=O)[C@H](CC(=O)O)NC(=O)[C@H](CC(C)C)NC(=O)[C@](C)(CC(C)C)NC(=O)[C@@H](NC(=O)[C@H](CO)NC(=O)[C@H](Cc1ccc(O)cc1)NC(=O)[C@H](CC(=O)O)NC(=O)[C@H](CO)NC(=O)[C@@H](NC(=O)[C@H](Cc1ccccc1)NC(=O)[C@@H](NC(=O)CNC(=O)[C@H](CCC(N)=O)NC(=O)C(C)(C)NC(=O)[C@@H](N)Cc1ccc(O)cc1)[C@@H](C)O)[C@@H](C)O)[C@@H](C)CC)C(=O)N[C@@H](CCC(=O)O)C(=O)N[C@@H](Cc1ccc(O)cc1)C(=O)N[C@@H](CC(C)C)C(=O)N[C@@H](CC(C)C)C(=O)N[C@@H](CCC(=O)O)C(=O)NCC(=O)NCC(=O)N1CCC[C@H]1C(=O)N[C@@H](CO)C(=O)N[C@@H](CO)C(=O)NCC(=O)N[C@@H](C)C(=O)N1CCC[C@H]1C(=O)N1CCC[C@H]1C(=O)N1CCC[C@H]1C(=O)N[C@@H](CO)C(N)=O [GGG tri-receptor agonist, Y-Aib-QGTFTSDYSI-αMeL-LDKK((2-[2-(2-amino-ethoxy)-ethoxy]-acetyl)-(γGlu)-CO-(CH2)18-CO2H)AQ-Aib-AFIEYLLEGGPSSGAPPPS-NH2]
[1]; 3.0, 6.0 and 12.0 mg, Week 12
  AUC (0-τ) and Cmax dose proportionality: increase in a dose-proportional manner
[1]; 0.5 mg, 0.5 mg QW, Day 1
  AUC(0-inf): 7180 ng·h/mL
  Cmax: 54.1 ng/mL
  Tmax: 48 h
[1]; 0.5 mg, 0.5 mg QW, Day 29
  AUC(0-inf): 14400 ng·h/mL
  Cmax: 118 ng/mL
  Tmax: 23.8 h
[1]; 0.5 mg, 0.5 mg QW, Day 57
  AUC(0-inf): 11800 ng·h/mL
  Cmax: 86.8 ng/mL
  Tmax: 36 h
[1]; 1.5 mg, 1.5 mg QW, Day 1
  AUC(0-inf): 22600 ng·h/mL
  Cmax: 228 ng/mL
  Tmax: 24 h
[1]; 1.5 mg, 1.5 mg QW, Day 29
  AUC(0-inf): 35900 ng·h/mL
  Cmax: 252 ng/mL
  Tmax: 24 h
[1]; 3 mg, 3.0 mg QW, Day 1
  AUC(0-inf): 33800 ng·h/mL
  Cmax: 290 ng/mL
  Tmax: 23.8 h
[1]; 3 mg, 3.0 mg QW, Day 29
  AUC(0-inf): 68100 ng·h/mL
  Cmax: 531 ng/mL
  Tmax: 12.2 h
[1]; 3 mg, 3.0 mg QW, Day 57
  AUC(0-inf): 66300 ng·h/mL
  Cmax: 562 ng/mL
  Tmax: 24 h
[1]; 3 mg, 3.0 mg QW, Day 78
  AUC(0-inf): 70100 ng·h/mL
  Cmax: 571 ng/mL
  Tmax: 12.2 h
[1]; 3 mg, 3.0 mg QW, Day 78, read-out: t½ (converted)
  half-life: 137 h
[1]; 6 mg, 3.0, 6.0 mg QW, Day 1
  AUC(0-inf): 34500 ng·h/mL
  Cmax: 292 ng/mL
  Tmax: 24 h
[1]; 6 mg, 3.0, 6.0 mg QW, Day 29
  AUC(0-inf): 86400 ng·h/mL
  Cmax: 711 ng/mL
  Tmax: 12.1 h
[1]; 6 mg, 3.0, 6.0 mg QW, Day 57
  AUC(0-inf): 136000 ng·h/mL
  Cmax: 1170 ng/mL
  Tmax: 24 h
[1]; 6 mg, 3.0, 6.0 mg QW, Day 78
  AUC(0-inf): 137000 ng·h/mL
  Cmax: 1060 ng/mL
  Tmax: 24 h
[1]; 6 mg, 3.0, 6.0 mg QW, Day 78, read-out: t½ (converted)
  half-life: 135 h
[1]; [3]
  AUC(0-inf): 31800 ng·h/mL
  Cmax: 265 ng/mL
  Tmax: 23.9 h
[1]; [4]
  AUC(0-inf): 150000 ng·h/mL
  Cmax: 1320 ng/mL
  Tmax: 23.8 h
[1]; [5]
  AUC(0-inf): 262000 ng·h/mL
  Cmax: 2070 ng/mL
  Tmax: 24 h
[1]; [6]
  AUC(0-inf): 293000 ng·h/mL
  Cmax: 2410 ng/mL
  Tmax: 23.9 h
[1]; 12 mg, 3.0, 6.0, 9.0, 12.0 mg QW, Day 78, read-out: t½ (converted)
  half-life: 143 h
[1]; MAD study, after dosing
  Tmax: 12 to 72 h
[1]; MAD study, read-out: mean half-life
  half-life: ~144 h
[1]; subcutaneous, across all dose levels, read-out: geometric mean t½
  half-life: 135 to 143 h
[1]; 3.0 mg QW, Day 78
  CL/F: 0.713 mL/min
[1]; 3.0, 6.0 mg QW, Day 78
  CL/F: 0.728 mL/min
[1]; 3.0, 6.0, 9.0, 12.0 mg QW, Day 78
  CL/F: 0.683 mL/min
[2]
  stability when stored: up to 96 days
